Assay results: US20260209249A1, “NOVEL TRICYCLIC COMPOUND AS KRAS G12D INHIBITOR, AND USE THEREOF” (SK Biopharmaceuticals Co., priority 2022, published 2026)

Key:
[1] = target: T1, GDP-KRAS G12D mutant protein (Homo sapiens, UniProt P01116, G12D); assay: Differential scanning fluorimetry (DSF) binding affinity to GDP-KRAS G12D mutant protein; details: DSF thermal shift, 10 μM compound, 4 μg KRAS protein
T1 construct: purchased Daegu Gyeongbuk Medical Innovation Foundation (DGMIF), made to order
In short: (§1)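 Thermal shift ΔTm was measured at 10 μM compound over a 25–99 °C ramp (0.05 °C/s), read at 580 nm ex/623 nm em with SYPRO Orange (2×). The protein (4 μg) was preincubated with compound for 30 min at room temperature, in 50 mM HEPES pH 7.5 for GppNHp-KRAS G12D or in kit buffer for GDP-KRAS G12D.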

[2] = target: T2, GppNHp-KRAS G12D mutant protein (Homo sapiens, UniProt P01116, G12D); assay: Differential scanning fluorimetry (DSF) binding affinity to GppNHp-KRAS G12D mutant protein; details: DSF thermal shift, 10 μM compound, 4 μg KRAS protein, 50 mM HEPES (pH 7.5)
T2 construct: purchased Daegu Gyeongbuk Medical Innovation Foundation (DGMIF), made to order
In short: as §1

[3] = test system: ERK phosphorylation (pERK) induced by KRAS G12D mutation; assay: Inhibitory activity against ERK phosphorylation (pERK) induced by KRAS G12D mutation, immunofluorescence assay in AsPC-1 cells; assay type: cell-based; details: Homo sapiens, ASPC1, 3 h drug treatment, pERK (Thr202/Tyr204) signal normalized to DAPI
Text: Test Example 2: Measurement of Inhibitory Activity Against ERK Phosphorylation (pERK) Induced by KRAS G12D Mutation (Immunofluorescence Assay)
Immunofluorescence is a method used to detect specific substances within cells or tissues through antigen-antibody interactions, and allows for the identification of the presence or absence of specific proteins by using antibodies labeled with various fluorescent dyes. After a primary antibody that recognizes a specific protein selectively binds to the epitope, a fluorescent antibody (secondary antibody) is bound to the primary antibody.
It was confirmed as follows that the compounds according to an embodiment of the present application inhibit phosphorylation of extracellular signal-regulated kinases (Phospho-ERK, pERK) induced by KRAS G12D mutation.
AsPC-1 cells were seeded at a density of 10,000 cells/well in RPMI-1640 medium containing 10% FBS and 1% Penicillin-Streptomycin in 384-well plates (Perkinelmer, #6057300) and allowed to attach for 16 h. After the cells attached to the plate, the cells were treated with drugs at a maximum concentration of 10 μM with a 3-fold serial dilution. After 3 h of drug treatment, the medium was removed and the cells were treated with 50 μL of 4% formaldehyde (Biosesang, #PC2031-050-00) for 20 min and washed three times with 50 μL of phosphate buffered saline (PBS).
50 μL of PBS containing 0.3% Triton X-100 (Sigma, #T8787-250 mL) was added and reacted for 20 minutes to allow antibody penetration into cells, and then the plate was washed three times with 50 μL of PBS. To block nonspecific binding of antibodies to the plate, 50 μL of PBS containing 2% BSA (sigma, #A7906-500G) and 0.01% Tween-20 (Sigma, #P1379-500 mL) (hereinafter referred to as PBS-T) was added, and reacted at room temperature for 2 hours.
To detect pERK, the primary antibody (cell signaling, #9101) was diluted 1:500 in PBS-T containing 2% BSA, 50 μL was added, and the plate was stored in a refrigerator at 4° C. for 16 hours to react, followed by washing three times with 50 μL of PBS-T. To visualize the primary antibody, the secondary antibody, i.e., anti-rabbit-Alexa Fluor 488 (ThermoFisher, #A11008), was diluted 1:1000 in PBS-T containing 2% BSA, 50 μL was added, and after reaction at room temperature for 1 hour, the plate was washed three times with 50 μL of PBS-T. Next, to visualize the nuclei of cells, DAPI (Thermofisher, #62248, 1 mg/mL) was diluted 1:1000 in PBS-T, 50 μL each was added, reacted at room temperature for 10 minutes, and washed three times with 50 μL of PBS-T. 50 μL of PBS-T was added to each well, and the plate was read for fluorescence value using HCS equipment (MOLECULAR DEVICES/ImageXpress Micro).
Data analysis was performed by normalizing the pERK (Thr202/Tyr204) signal to the DAPI signal and calculating the percentage relative to the DMSO as a control. The IC50 value was determined by fitting a four-parameter dose-response curve using the GraphPad Prism software (version 8.4.3), and interpolating the concentration at which 50% inhibition occurred. The results of calculating the inhibitory efficacy of the compounds according to one embodiment of the present application against KRAS G12D mutation-induced pERK activity are shown in Table 3.

Oc1cc(-c2cc3nc(OC[C@@]45CCCN4C[C@H](F)C5)nc(N4C[C@H]5CC[C@@H](C4)N5)c3n3ccnc23)c2c(F)c(F)ccc2c1 [Example 3, 4-(1-((1 R,5S)-3,8-diazabicyclo[3.2.1]octan-3-yl)-3-(((2R,7aS)-2-fluorotetrahydro-1H-pyrrolizin-7a(5H)-yl)methoxy)imidazo[1′,2′:1,6]pyrido[3,2-d]pyrimidin-6-yl)-5,6-difluoronaphthalen-2-ol]
GDP-KRAS G12D (ΔTmD, ° C.) [1]: 6.05 °C
GppNHp-KRAS G12D (ΔTmD, ° C.) [2]: 1.90 °C
IC50 [3]: 1.42 µM

CN(C)C1(CNc2nc(OC[C@@]34CCCN3C[C@H](F)C4)nc3cc(-c4cc(O)cc5ccc(F)c(F)c45)c4nccn4c23)CCC1 [Example 5, 4-(1-(((1-(dimethylamino)cyclobutyl)methyl)amino)-3-(((2R,7aS)-2-fluorotetrahydro-1H-pyrrolizin-7a(5H)-yl)methoxy)imidazo[1′,2′:1,6]pyrido[3,2-d]pyrimidin-6-yl)-5,6-difluoronaphthalen-2-ol]
GDP-KRAS G12D (ΔTmD, ° C.) [1]: 4.27 °C
GppNHp-KRAS G12D (ΔTmD, ° C.) [2]: 1.60 °C
IC50 [3]: 0.953 µM

C#Cc1c(F)ccc2cc(O)cc(-c3cc4nc(OC[C@@]56CCCN5C[C@H](F)C6)nc(NCC5(N(C)C)CCC5)c4n4ccnc34)c12 [Example 6, 4-(1-(((1-(dimethylamino)cyclobutyl)methyl)amino)-3-(((2R,7aS)-2-fluorotetrahydro-1H-pyrrolizin-7a(5H)-yl)methoxy)imidazo[1′,2′:1,6]pyrido[3,2-d]pyrimidin-6-yl)-5-ethynyl-6-fluoronaphthalen-2-ol]
IC50 [3]: 2.32 µM

C#Cc1c(F)ccc2cc(O)cc(-c3cc4nc(OCC5(CN6C[C@H]7C[C@@H]6CO7)CC5)nc(N5C[C@H]6CC[C@@H](C5)N6)c4n4ccnc34)c12 [Example 10, 4-(3-((1-(((1 R,4R)-2-oxa-5-azabicyclo[2.2.1]heptan-5-yl)methyl)cyclopropyl)methoxy)-1-((1 R,5S)-3,8-diazabicyclo[3.2.1]octan-3-yl)imidazo[1′,2′:1,6]pyrido[3,2-d]pyrimidin-6-yl)-5-ethynyl-6-fluoronaphthalen-2-ol]
GDP-KRAS G12D (ΔTmD, ° C.) [1]: 9.00 °C
GppNHp-KRAS G12D (ΔTmD, ° C.) [2]: 2.79 °C
IC50 [3]: 2.1 µM

C#Cc1c(F)ccc2cc(O)cc(-c3cc4nc(OCC5(CN6CCCC6)CC5)nc(N5[C@@H]6CC[C@H]5CNC6)c4n4ccnc34)c12 [Example 17, 4-(1-((1R,5S)-3,8-diazabicyclo[3.2.1]octan-8-yl)-3-((1-(pyrrolidin-1-ylmethyl)cyclopropyl)methoxy)imidazo[1′,2′:1,6]pyrido[3,2-d]pyrimidin-6-yl)-5-ethynyl-6-fluoronaphthalen-2-ol]
GDP-KRAS G12D (ΔTmD, ° C.) [1]: 9.45 °C
GppNHp-KRAS G12D (ΔTmD, ° C.) [2]: 4.71 °C
IC50 [3]: 1.17 µM

C#Cc1c(F)ccc2cc(O)cc(-c3cc4nc(OC[C@]56CCCN5CC(=C)C6)nc(N5[C@@H]6CC[C@H]5CNC6)c4n4ccnc34)c12 [Example 21, 4-(1-((1R,5S)-3,8-diazabicyclo[3.2.1]octan-8-yl)-3-(((R)-2-methylenetetrahydro-1H-pyrrolizin-7a(5H)-yl)methoxy)imidazo[1′,2′:1,6]pyrido[3,2-d]pyrimidin-6-yl)-5-ethynyl-6-fluoronaphthalen-2-ol]
GDP-KRAS G12D (ΔTmD, ° C.) [1]: 8.13 °C
GppNHp-KRAS G12D (ΔTmD, ° C.) [2]: 4.72 °C
IC50 [3]: 0.196 µM

Cc1cc2c(o1)c(-c1cc(O)cc3ccccc13)c(F)c1nc(OC[C@@]34CCCN3C[C@H](F)C4)nc(N3C[C@H]4CC[C@@H](C3)N4)c12 [Example 43, 4-(1-((1R,5S)-3,8-diazabicyclo[3.2.1]octan-3-yl)-5-fluoro-3-(((2R,7aS)-2-fluorotetrahydro-1H-pyrrolizin-7a(5H)-yl)methoxy)-8-methylfuro[3,2-f]quinazolin-6-yl)naphthalen-2-ol]
GDP-KRAS G12D (ΔTmD, ° C.) [1]: 9.30 °C
GppNHp-KRAS G12D (ΔTmD, ° C.) [2]: 4.27 °C
IC50 [3]: 0.953 µM

Cc1cc2c(o1)c(-c1cc(O)cc3ccccc13)c(F)c1nc(OC[C@@]34CCCN3C[C@H](F)C4)nc(NCC3(N(C)C)CCC3)c12 [Example 47, 4-(1-(((1-(dimethylamino)cyclobutyl)methyl)amino)-5-fluoro-3-(((2R,7aS)-2-fluorotetrahydro-1H-pyrrolizin-7a(5H)-yl)methoxy)-8-methylfuro[3,2-n]quinazolin-6-yl)naphthalen-2-ol]
IC50 [3]: 7.98 µM

Cc1cc2c(o1)c(-c1ccc(F)c3sc(N)c(C#N)c13)c(F)c1nc(OC[C@@]34CCCN3C[C@H](F)C4)nc(N3C[C@H]4CC[C@@H](C3)N4)c12 [Example 62, 4-(1-((1R,5S)-3,8-diazabicyclo[3.2.1]octan-3-yl)-5-fluoro-3-(((2R,7aS)-2-fluorotetrahydro-1H-pyrrolizin-7a(5H)-yl)methoxy)-8-methylfuro[3,2-f]quinazolin-6-yl)-2-amino-7-fluorobenzo[b]thiophene-3-carbonitrile]
GDP-KRAS G12D (ΔTmD, ° C.) [1]: 9.01 °C
GppNHp-KRAS G12D (ΔTmD, ° C.) [2]: 8.57 °C
IC50 [3]: 0.631 µM

Cc1cc2c(o1)c(-c1ccc(F)c3sc(N)c(C#N)c13)c(F)c1nc(OC[C@@]34CCCN3C/C(=C\F)C4)nc(N3C[C@H]4CC[C@@H](C3)N4)c12 [Example 63, 4-(1-((1R,5S)-3,8-diazabicyclo[3.2.1]octan-3-yl)-5-fluoro-3-(((S,Z)-2-(fluoromethylene)tetrahydro-1H-pyrrolizin-7a(5H)-yl)methoxy)-8-methylfuro[3,2-f]quinazolin-6-yl)-2-amino-7-fluorobenzo[b]thiophene-3-carbonitrile]
GDP-KRAS G12D (ΔTmD, ° C.) [1]: 8.72 °C
GppNHp-KRAS G12D (ΔTmD, ° C.) [2]: 9.02 °C
IC50 [3]: 0.532 µM

C#Cc1c(F)ccc2cc(O)cc(-c3c(F)c4nc(OC[C@@]56CCCN5C/C(=C\F)C6)nc(N5C[C@H]6CC[C@@H](C5)N6)c4c4cc(C)oc34)c12 [Example 64, 4-(1-((1R,5S)-3,8-diazabicyclo[3.2.1]octan-3-yl)-5-fluoro-3-(((S,Z)-2-(fluoromethylene)tetrahydro-1H-pyrrolizin-7a(5H)-yl)methoxy)-8-methylfuro[3,2-n]quinazolin-6-yl)-5-ethynyl-6-fluoronaphthalen-2-ol]
GDP-KRAS G12D (ΔTmD, ° C.) [1]: 15.24 °C
GppNHp-KRAS G12D (ΔTmD, ° C.) [2]: 11.39 °C
IC50 [3]: 0.062 µM

Cn1cc2c(n1)c(-c1cc(O)cc3ccccc13)cc1nc(OC[C@@]34CCCN3C[C@H](F)C4)nc(N3C[C@H]4CC[C@@H](C3)N4)c12 [Example 68, 4-(9-((1R,5S)-3,8-diazabicyclo[3.2.1]octan-3-yl)-7-(((2R,7aS)-2-fluorotetrahydro-1H-pyrrolizin-7a(5H)-yl)methoxy)-2-methyl-2H-pyrazolo[4,3-f]quinazolin-4-yl)naphthalen-2-ol]
GDP-KRAS G12D (ΔTmD, ° C.) [1]: 5.75 °C
GppNHp-KRAS G12D (ΔTmD, ° C.) [2]: 1.90 °C
IC50 [3]: 9.02 µM

Cn1cc2c(n1)c(-c1cc(O)cc3ccc(F)c(F)c13)cc1nc(OC[C@@]34CCCN3C[C@H](F)C4)nc(N3C[C@H]4CC[C@@H](C3)N4)c12 [Example 70, 4-(9-((1R,5S)-3,8-diazabicyclo[3.2.1]octan-3-yl)-7-(((2R,7aS)-2-fluorotetrahydro-1H-pyrrolizin-7a(5H)-yl)methoxy)-2-methyl-2H-pyrazolo[4,3-f]quinazolin-4-yl)-5,6-difluoronaphthalen-2-ol]
GDP-KRAS G12D (ΔTmD, ° C.) [1]: 6.34 °C
GppNHp-KRAS G12D (ΔTmD, ° C.) [2]: 3.38 °C
IC50 [3]: 0.735 µM
